Experimental data taken from patent US8815875B2 (Merck Sharp & Dohme Corp., priority 2008, dated 2014).

Target: FABP4 (Homo sapiens, UniProt P15090)
Assay: TdF (Temperature Dependence Fluorescence) assay, thermal shift, FABP4
Type: binding
Description: TdF (Temperature Dependence Fluorescence) Assay for FABP3 and FABP4
The TdF assay was mainly conducted in the 96-well based CHROMO-4 real time fluorescence plate reader (BioRad). The Sypro Orange (Sigma-Aldrich), environmentally sensitive fluorescence dye, was used to monitor the protein folding-unfolding transition. Protein-ligand binding was gauged by the change (or shift) in the unfolding transition temperature (ΔTm) acquired at protein alone with respect to protein in the presence of ligand of interest.
The compound of interest was first prepared in DMSO stock (typical concentration: 10 mM). […] Final percentage of DMSO resided in the sample was 2%. The sample plate was heated from 30° C. to 90° C. with thermal ramping rate of 1° C./min. The fluorescence signals were acquired with excitation and emission wavelengths centered at 490 and 560 nm respectively. The instrument thermal stability was ±0.2° C.
Theoretical basis for TdF-based ligand binding affinity constant
In brief, the binding constant of the ligand at the Tm is expressed as below:
[formula] where To is the midpoint of unfolding for unliganded protein and Tm is the midpoint of unfolding in presence of ligand. [LTm] is free ligand at Tm. The ΔHu and ΔCpu are the enthalpy of unfolding and heat capacity change of unfolding for the protein respectively.
The nonlinear regression fitting in general readily reaches convergence by properly constraining the initial values for the fitting parameters (e.g. the initial “guess” for the ΔHu was constrained to 120 kcal/mol; initial Yn and mn were set to 1 and zero to best represent the melting curve along the low temperature region; negative slope of −0.5 was initially chosen for mu; initial Tm was also constrained to 50° C.).
[formula] (see Brandts et al and Mayhood et al, shown above) where ΔHL (T) is the van't Hoff enthalpy of ligand binding at temperature T and ΔCpL is the heat capacity upon ligand binding. For simplicity, the ΔCpL and ΔHL (T) were set to zero and −7 kcal/mol respectively. […] TdCD (Temperature-dependent Circular Dichroism) Assay for FABP3/4/5

FABP4, sequence (P15090 whole entry, species assumed): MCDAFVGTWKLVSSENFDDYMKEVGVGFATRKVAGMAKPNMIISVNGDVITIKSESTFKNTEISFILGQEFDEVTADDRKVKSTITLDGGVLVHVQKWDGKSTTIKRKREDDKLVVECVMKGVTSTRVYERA

Row | SMILES | FABP4 TdF Kd | Kd [nM]
1 | O=c1cc(CN2CCc3ccc(Cl)cc32)[nH]c2nc(-c3ccccc3)nn12 [1-83] | B (0.5 ≦ B < 0.001 μM) | 
2 | Cc1c(Br)cccc1OCc1cc(=O)n2nc(-c3ccccc3)nc2[nH]1 [1-84] | B (0.5 ≦ B < 0.001 μM) | 
3 | Cc1c(OCc2cc(=O)n3nc(-c4ccccc4)nc3[nH]2)cccc1C(F)(F)F [1-85] | B (0.5 ≦ B < 0.001 μM) | 
4 | O=c1cc(COc2cc(Cl)cc(Cl)c2)[nH]c2nc(-c3ccccc3)nn12 [1-86] | B (0.5 ≦ B < 0.001 μM) | 
5 | O=c1cc(COc2cc(Cl)cc(Cl)c2Cl)[nH]c2nc(-c3ccccc3)nn12 [1-87] | B (0.5 ≦ B < 0.001 μM) | 
6 | O=c1cc(COc2cccc(Cl)c2)[nH]c2nc(-c3ccccc3)nn12 [1-88] | B (0.5 ≦ B < 0.001 μM) | 
7 | O=c1cc(CN2CCC(Cc3cccc(F)c3)C2)[nH]c2nc(-c3ccccc3)nn12 (stereo not shown) [1-89] |  | > 500
8 | Cn1ccc(NCc2cc(=O)n3nc(-c4ccccc4)nc3[nH]2)n1 [1-90] |  | > 500
9 | O=c1cc(CN2CCC(c3cccc(Cl)c3)C2)[nH]c2nc(-c3ccccc3)nn12 (stereo not shown) [1-91] |  | > 500
10 | O=c1cc(CN2CCC(Cc3ccccc3F)C2)[nH]c2nc(-c3ccccc3)nn12 (stereo not shown) [1-92] |  | > 500
11 | O=c1cc(COc2cccc(F)c2)[nH]c2nc(-c3ccccc3)nn12 [1-93] | B (0.5 ≦ B < 0.001 μM) | 
12 | O=c1cc(COc2ccc(Cl)c(F)c2)[nH]c2nc(-c3ccccc3)nn12 [1-94] | B (0.5 ≦ B < 0.001 μM) | 
13 | CC1(C)CCC(=O)N(Cc2cc(=O)n3nc(-c4ccccc4)nc3[nH]2)C1 [1-95] |  | > 500
14 | CCC1(OCc2cc(=O)n3nc(-c4ccccc4)nc3[nH]2)CCCCC1 [1-96] |  | > 500
15 | CC1(C)CC(OCc2cc(=O)n3nc(-c4ccccc4)nc3[nH]2)CC(C)(C)C1 [1-97] | B (0.5 ≦ B < 0.001 μM) | 
16 | CN1CCc2c(cccc2OCc2cc(=O)n3nc(-c4ccccc4)nc3[nH]2)C1 [1-98] |  | > 500
17 | CC1CC(OCc2cc(=O)n3nc(-c4ccccc4)nc3[nH]2)CC(C)(C)C1 (stereo not shown) [1-99] | B (0.5 ≦ B < 0.001 μM) | 
18 | O=c1cc(CN2CCn3c(nnc3C3CC3)C2)[nH]c2nc(-c3ccccc3)nn12 [1-101] |  | > 500
19 | CC1(C)CCCC(C)(C)C1OCc1cc(=O)n2nc(-c3ccccc3)nc2[nH]1 [1-102] |  | > 500
20 | O=c1cc(CN2CCCC2Cc2ccncn2)[nH]c2nc(-c3ccccc3)nn12 (stereo not shown) [1-103] |  | > 500
21 | Cc1cnc2cccc(NCc3cc(=O)n4nc(-c5ccccc5)nc4[nH]3)n12 [1-104] |  | > 500
22 | Cn1cc2cccc(NCc3cc(=O)n4nc(-c5ccccc5)nc4[nH]3)c2n1 [1-105] |  | > 500
23 | Cn1ncc2cccc(NCc3cc(=O)n4nc(-c5ccccc5)nc4[nH]3)c21 [1-106] |  | > 500
24 | O=c1cc(CO[C@@H]2C[C@H]3CC[C@@H]2C3)[nH]c2nc(-c3ccccc3)nn12 [1-107] | B (0.5 ≦ B < 0.001 μM) | 

Row | SMILES | FABP4 TdF Kd | Kd [nM]
25 | O=c1cc(CO[C@H]2C[C@H]3CC[C@@H]2C3)[nH]c2nc(-c3ccccc3)nn12 [1-108] | B (0.5 ≦ B < 0.001 μM) | 
26 | O=c1cc(CN2CCn3c(Br)nnc3C2)[nH]c2nc(-c3ccccc3)nn12 [1-109] |  | > 500
27 | C[C@@H]1C[C@@H](OCc2cc(=O)n3nc(-c4ccccc4)nc3[nH]2)CC(C)(C)C1 [1-110] | B (0.5 ≦ B < 0.001 μM) | 
28 | C[C@@H]1C[C@H](OCc2cc(=O)n3nc(-c4ccccc4)nc3[nH]2)CC(C)(C)C1 [1-111] | B (0.5 ≦ B < 0.001 μM) | 
29 | O=c1cc(CN2CCCC2Cc2cccnc2)[nH]c2nc(-c3ccccc3)nn12 (stereo not shown) [1-112] |  | > 500
30 | Cc1ccsc1-c1nc2[nH]c(COc3cccc(Cl)c3C)cc(=O)n2n1 [1-113] |  | > 500
31 | Cc1ccoc1-c1nc2[nH]c(COc3cccc(Cl)c3C)cc(=O)n2n1 [1-115] |  | > 500
32 | O=c1cc(COc2ccccc2Cl)[nH]c2nc(-c3ccccc3)nn12 [1-118] | B (0.5 ≦ B < 0.001 μM) | 
33 | O=c1cc(CN2CCCC2Cc2c(F)cccc2Cl)[nH]c2nc(-c3ccccc3)nn12 (stereo not shown) [1-131] | B (0.5 ≦ B < 0.001 μM) | 
34 | O=c1cc(COc2cccc(Cl)c2[N+](=O)[O-])[nH]c2nc(-c3ccccc3)nn12 [1-134] | B (0.5 ≦ B < 0.001 μM) | 
35 | O=c1cc(COC2CCCCC2O)[nH]c2nc(-c3ccccc3)nn12 (stereo not shown) [1-135] |  | > 500
36 | Nc1c(Cl)cccc1OCc1cc(=O)n2nc(-c3ccccc3)nc2[nH]1 [1-136] | B (0.5 ≦ B < 0.001 μM) | 
37 | O=c1cc(CN2CCCC2Cc2ccccn2)[nH]c2nc(-c3ccccc3)nn12 (stereo not shown) [1-139] |  | > 500
38 | Cc1ccc(F)c2ccn(Cc3cc(=O)n4nc(-c5ccccc5)nc4[nH]3)c12 [1-141] |  | > 500
39 | Cc1cn(Cc2cc(=O)n3nc(-c4ccccc4)nc3[nH]2)c2cccc(Cl)c12 [1-142] | B (0.5 ≦ B < 0.001 μM) | 
40 | CCCCc1cn(Cc2cc(=O)n3nc(-c4ccccc4)nc3[nH]2)c2cccc(Cl)c12 [1-143] | B (0.5 ≦ B < 0.001 μM) | 
41 | Cn1cc(Br)c(NCc2cc(=O)n3nc(-c4ccccc4)nc3[nH]2)n1 [1-146] |  | > 500
42 | CC1(C)CCC(OCc2cc(=O)n3nc(-c4ccccc4)nc3[nH]2)CC1 [1-147] | B (0.5 ≦ B < 0.001 μM) | 
43 | O=c1cc(COc2cccnc2Br)[nH]c2nc(-c3ccccc3)nn12 [1-148] |  | > 500
44 | Cc1cccc2c1OCCN2Cc1cc(=O)n2nc(-c3ccccc3)nc2[nH]1 [1-149] | B (0.5 ≦ B < 0.001 μM) | 
45 | CC1(OCc2cc(=O)n3nc(-c4ccccc4)nc3[nH]2)CCCCC1 [1-150] | B (0.5 ≦ B < 0.001 μM) | 
46 | Cn1nc(C2CC2)cc1NCc1cc(=O)n2nc(-c3ccccc3)nc2[nH]1 [1-151] |  | > 500
47 | COC(=O)C1(NCc2cc(=O)n3nc(-c4ccccc4)nc3[nH]2)CCc2ccc(Br)cc2C1 (stereo not shown) [1-155] |  | > 500

The next lines start with the values.

Row | FABP4 TdF Kd | Kd [nM] | SMILES
48 | B (0.5 ≦ B < 0.001 μM) |  | Cc1c(Cl)cccc1OCc1[nH]c2nc(-c3ccccc3)nn2c(=O)c1Br [2-1]
49 |  | > 500 | CCc1ccc(OCc2[nH]c3nc(-c4ccccc4)nn3c(=O)c2Br)cc1 [2-2]
50 | B (0.5 ≦ B < 0.001 μM) |  | Cc1c(Cl)cccc1OCc1[nH]c2nc(-c3ccccc3)nn2c(=O)c1Cl [3-1]
51 |  | > 500 | Cc1c(Cl)cccc1NCc1cc(=O)n2ncnc2[nH]1 [4-2]
52 |  | > 500 | CCc1ccc(NCc2cc(=O)n3ncnc3[nH]2)cc1 [4-3]
53 |  | > 500 | CCc1ccc(NCc2cc(=O)n3nc(C(F)(F)F)nc3[nH]2)cc1 [5-2]
54 |  | > 500 | O=c1cc(COc2cccc(C(F)(F)F)c2)[nH]c2nc(C(F)(F)F)nn12 [5-3]
55 |  | > 500 | Cc1ccc(OCc2cc(=O)n3nc(C(F)(F)F)nc3[nH]2)cc1C [5-4]
56 |  | > 500 | O=c1cc(CNc2ccc(F)c(F)c2)[nH]c2nc(C(F)(F)F)nn12 [5-5]
57 |  | > 500 | COc1ccc(Cl)cc1NCc1cc(=O)n2nc(C(F)(F)F)nc2[nH]1 [5-6]
58 |  | > 500 | CCc1ccc(NCc2cc(=O)n3nc(C)nc3[nH]2)cc1 [5-7]
59 |  | > 500 | CCc1ccc(NCc2cc(=O)n3nc(CC)nc3[nH]2)cc1 [5-8]
60 |  | > 500 | CCc1ccc(NCc2cc(=O)n3nc(C4CC4)nc3[nH]2)cc1 [5-9]
61 |  | > 500 | CC(C)c1ccc(NCc2cc(=O)n3nc(-c4ccccc4)nc3[nH]2)cc1 [6-1]
62 |  | > 500 | CCOc1ccc(NCc2cc(=O)n3nc(-c4ccccc4)nc3[nH]2)cc1 [6-2]
63 |  | > 500 | COc1cc2c(cc1OC)CN(Cc1cc(=O)n3nc(-c4ccccc4)nc3[nH]1)C2 [6-5]
64 |  | > 500 | CCc1ccc(OCc2cc(=O)n3ncnc3[nH]2)cc1 [7-1]
